{"source": "patent US7264935B2", "about": "“Potassium-dependent sodium-calcium exchanger” (Astellas Pharma Inc., priority 2002, dated 2007)", "type_in_all_cases": "cell-based", "key": {"[1]": {"target": "T1, novel potassium-dependent sodium-calcium exchanger consisting of the amino acid sequence of SEQ ID NO: 2 (Homo sapiens, UniProt Q8NFF2)", "T1 construct": "expressed in transfected cells", "T1 sequence (Q8NFF2 39-622)": "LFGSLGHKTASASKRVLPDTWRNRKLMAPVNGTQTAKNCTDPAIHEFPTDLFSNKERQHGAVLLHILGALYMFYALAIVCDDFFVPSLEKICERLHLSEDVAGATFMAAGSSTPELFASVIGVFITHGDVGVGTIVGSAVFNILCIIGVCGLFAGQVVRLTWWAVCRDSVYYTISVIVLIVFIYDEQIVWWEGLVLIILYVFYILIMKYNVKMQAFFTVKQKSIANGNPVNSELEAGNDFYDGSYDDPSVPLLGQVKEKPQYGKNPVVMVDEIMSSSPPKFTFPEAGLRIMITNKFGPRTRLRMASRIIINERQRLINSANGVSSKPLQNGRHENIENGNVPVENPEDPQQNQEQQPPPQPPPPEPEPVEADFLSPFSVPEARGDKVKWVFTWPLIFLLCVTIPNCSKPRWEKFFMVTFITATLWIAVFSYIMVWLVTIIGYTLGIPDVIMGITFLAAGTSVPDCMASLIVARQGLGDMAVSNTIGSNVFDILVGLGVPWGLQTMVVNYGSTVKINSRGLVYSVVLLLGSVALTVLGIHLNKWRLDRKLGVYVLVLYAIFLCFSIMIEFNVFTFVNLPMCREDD", "assay": "45Ca uptake screening for inhibition of potassium-dependent sodium-calcium exchange activity in stable-expression Dede cells (SEQ ID NO: 2)", "conditions": "exchanger of SEQ ID NO: 2; conditions of Example 6", "method": "(§1) Sodium was incorporated into cells by changing the medium to an extracellular solution containing monensin [i.e., a solution containing 0.01 mmol/L monensin, 1 mmol/L ouabain, 146 mmol/L NaCl, 4 mmol/L KCl, 0.1 mmol/L CaCl2, 2 mmol/L MgCl2, 10 mmol/L glucose, 0.1% bovine serum albumin, and 10 mmol/L HEPES-Tris (pH=7.4)] and incubating the cells at 37° C. for 30 minutes. […]\n(§2) The treated cells were washed with a washing solution containing 120 mmol/L choline chloride, 10 mmol/L LaCl3, and 10 mmol/L HEPES-Tris (pH=7.4) to remove calcium ions not incorporated, and then an intracellular calcium ion radioactivity was measured and analyzed by a liquid scintillation counter. In the HEK293 cells, Dede cells, or CHO-dhfr^− cells expressing the polypeptide consisting of the amino acid sequence of SEQ ID NO: 2 or 4, a higher radioactivity of approximately two times that obtained in the case of the extracellular solution A was measured when using the extracellular solution B (extracellular solution in which sodium was replaced with choline). Further, higher radioactivities of approximately five times and approximately ten times that obtained in the case of the extracellular solution A were measured when using the extracellular solutions C and D (extracellular solution containing potassium), respectively. […]"}, "[2]": {"target": "T2, novel potassium-dependent sodium-calcium exchanger consisting of the amino acid sequence of SEQ ID NO: 4 (Homo sapiens, UniProt Q8NFF2)", "T2 construct": "expressed in transfected cells", "T2 sequence (Q8NFF2 39-603 isoform Q8NFF2-3)": "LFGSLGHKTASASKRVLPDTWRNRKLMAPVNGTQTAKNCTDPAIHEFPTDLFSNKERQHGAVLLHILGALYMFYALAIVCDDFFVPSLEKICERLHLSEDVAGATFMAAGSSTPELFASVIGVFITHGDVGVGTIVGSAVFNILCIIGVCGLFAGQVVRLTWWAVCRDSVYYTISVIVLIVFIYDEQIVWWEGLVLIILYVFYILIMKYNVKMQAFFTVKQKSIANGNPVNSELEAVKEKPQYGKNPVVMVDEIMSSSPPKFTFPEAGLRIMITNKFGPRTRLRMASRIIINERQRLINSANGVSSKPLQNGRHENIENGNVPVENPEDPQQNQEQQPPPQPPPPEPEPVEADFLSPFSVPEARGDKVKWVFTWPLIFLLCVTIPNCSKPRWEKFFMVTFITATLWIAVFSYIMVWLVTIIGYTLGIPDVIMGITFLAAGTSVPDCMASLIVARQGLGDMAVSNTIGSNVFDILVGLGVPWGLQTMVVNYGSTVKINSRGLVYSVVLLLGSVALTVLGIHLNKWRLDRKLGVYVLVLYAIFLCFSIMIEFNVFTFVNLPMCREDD", "assay": "45Ca uptake screening for inhibition of potassium-dependent sodium-calcium exchange activity in stable-expression Dede cells (SEQ ID NO: 4)", "conditions": "exchanger of SEQ ID NO: 4; conditions of Example 6", "method": "as §1, §2"}, "[3]": {"system": "human peripheral polymorphonuclear leukocytes (PMNs)", "assay": "fMLP-stimulated migration test of PMNs in Transwell chemotaxis chamber", "conditions": "for Number of migrating cells (relative value): 100 nmol/L fMLP, 37° C., 1 hour, DMSO = 100, average ± SD of three experiments; for migration of PMNs (result in words): 10, 30 and 100 μmol/L, fMLP-stimulated", "method": "The compounds obtained in Example 6 were evaluated using human peripheral polymorphonuclear leukocytes (PMNs). A blood sample was obtained by collecting blood from a healthy adult. A ficoll solution for separation (mono-poly resolving medium; Dainippon Pharmaceutical) was poured into each centrifuge tube, and a fresh blood component was laid on the ficoll solution. Centrifugation was carried out at 400×g at room temperature for 30 minutes to separate the upper layer (monocytes), the intermediate layer (PMNs), and the precipitate (erythrocytes). Each layer was collected in such a way that they were not mixed with each other, suspended in a phosphate buffered saline (PBS), and recentrifuged. Each collected layer was suspended in an RPMI1640 medium containing 0.2% bovine serum albumin (BSA), and used in the following experiment after counting the number of cells. A portion of the resulting PMN component was stained by a hematoxylin and eosin stain to confirm that neutrophils (approximately 95%) and eosinophils (approximately 5%) were contained.\nA migration test was carried out using a 24-well disposable chemotaxis chamber Transwell 3 μm; Corning). Each test solution in which compound A or B (final concentration=10 μmol/L, 30 μmol/L, and 100 μmol/L) were contained in a medium (0.2% BSA, RPMI1640 medium) containing 100 nmol/L formylmethionyl-leucinyl-phenylalanine (fMLP) was prepared, and 1 mL of each test solution was added to each of the lower wells. The collected PMNs were added to each of the upper wells (2.0×10^6 cells/well; 0.2 mL) and incubated at 37° C. for 1 hour. The numbers of cells which migrated to the lower wells were counted by a hemacytometer. The test was independently repeated three times.\nEach value shown in Table 1 is a relative value when the value obtained in the case of using DMSO instead of the test compounds is regarded as 100. Further, each value shown in Table 1 is an average and a standard deviation (SD) on the basis of three independent experiments."}}, "data": [{"smiles": "CS(=O)(=O)O.N=C(N)SCCc1ccc(OCc2ccc([N+](=O)[O-])cc2)cc1", "note": "[compound A, 2-[2-[4-(4-nitrobenzyloxy)phenyl]ethyl]isothiourea methanesulfonate]", "values": [{"measurement": "IC50", "setting": "[1]", "result": 15.8, "unit": "µM"}, {"measurement": "IC50", "setting": "[2]", "result": 35, "unit": "µM"}, {"measurement": "Number of migrating cells (relative value)", "setting": "[3]; 10 μmol/L compound", "result": "78.18 ± 25.93"}, {"measurement": "Number of migrating cells (relative value)", "setting": "[3]; 30 μmol/L compound", "result": "29.50 ± 26.16"}, {"measurement": "Number of migrating cells (relative value)", "setting": "[3]; 100 μmol/L compound", "result": "16.84 ± 10.78"}, {"measurement": "migration of PMNs (result in words)", "setting": "[3]", "result": "inhibited the migration of PMNs dose-dependently"}]}, {"smiles": "N/C(=N\\C(=O)c1nc(Cl)c(N)nc1N)NCc1ccc(Cl)c(Cl)c1", "note": "[compound B, 3′,4′-dichlorobenzamil]", "values": [{"measurement": "IC50", "setting": "[1]", "result": 20.2, "unit": "µM"}, {"measurement": "IC50", "setting": "[2]", "result": 58.9, "unit": "µM"}, {"measurement": "Number of migrating cells (relative value)", "setting": "[3]; 10 μmol/L compound", "result": "100.68 ± 7.27"}, {"measurement": "Number of migrating cells (relative value)", "setting": "[3]; 30 μmol/L compound", "result": "72.90 ± 15.85"}, {"measurement": "Number of migrating cells (relative value)", "setting": "[3]; 100 μmol/L compound", "result": "44.58 ± 32.82"}, {"measurement": "migration of PMNs (result in words)", "setting": "[3]", "result": "inhibited the migration of PMNs dose-dependently"}]}]}
